# Measurements taken from ChEMBL document CHEMBL3259549, “Unraveling the structure-activity relationship of tomatidine, a steroid alkaloid with unique antibiotic properties against persistent forms of Staphylococcus aureus” (2014).
# Key:
# Staphylococcus aureus [1] = assay: Antimicrobial activity against hemB-deficient Staphylococcus aureus Newbould after 48 hrs by broth microdilution method; assay type: functional
# Staphylococcus aureus [2] = assay: microbe, parasite or virus in culture; conditions: ATCC 29213, 48 h
# Description: Antimicrobial activity against Staphylococcus aureus ATCC 29213 after 48 hrs by broth microdilution method
# Staphylococcus aureus [3] = assay: MIC fold reduction, ratio of gentamicin MIC for Staphylococcus aureus ATCC 29213 to gentamicin MIC for Staphylococcus aureus ATCC 29213 in presence of compound
Compound,MIC (Staphylococcus aureus [1]),MIC (Staphylococcus aureus [2]),gentamicin MIC fold reduction (Staphylococcus aureus [3])
CC(C)CCNC(C)[C@H]1CC[C@H]2[C@@H]3CC[C@H]4C[C@@H](O)CC[C@]4(C)[C@H]3CC[C@]12C.Cl (some centres undefined),> 8 µg/mL,> 64 µg/mL,4
CC(NCCN)[C@H]1CC[C@H]2[C@@H]3CC[C@H]4C[C@@H](O)CC[C@]4(C)[C@H]3CC[C@]12C.Cl.Cl (some centres undefined),> 8 µg/mL,32 µg/mL,2
C[C@H]1CC[C@]2(NC1)O[C@H]1C[C@H]3[C@@H]4CC[C@H]5C[C@@H](O)CC[C@]5(C)[C@H]4CC[C@]3(C)[C@H]1[C@@H]2C [TOMATIDINE],0.12 µg/mL,,
C[C@H]1CC[C@]2(NC1)O[C@H]1C[C@H]3[C@@H]4CC[C@H]5CC(NCCCCN)CC[C@]5(C)[C@H]4CC[C@]3(C)[C@H]1[C@@H]2C.Cl.Cl.Cl (some centres undefined),0.5 µg/mL,16 µg/mL,4
CC(=O)NC[C@@H](C)CCC1O[C@H]2C[C@H]3[C@@H]4CC[C@H]5C[C@@H](O)CC[C@]5(C)[C@H]4CC[C@]3(C)[C@H]2[C@@H]1C (some centres undefined),> 8 µg/mL,> 64 µg/mL,1
C[C@H]1CC[C@]2(NC1)O[C@H]1C[C@H]3[C@@H]4CC[C@H]5CC(NCCCCCCN)CC[C@]5(C)[C@H]4CC[C@]3(C)[C@H]1[C@@H]2C.Cl.Cl.Cl (some centres undefined),1 µg/mL,32 µg/mL,2
C[C@@H]1CC[C@@]2(NC1)O[C@H]1C[C@H]3[C@@H]4CC[C@H]5C[C@@H](O)CC[C@]5(C)[C@H]4CC[C@]3(C)[C@H]1[C@@H]2C,> 8 µg/mL,> 64 µg/mL,1
CN(C)CC(=O)[C@H]1CC[C@H]2[C@@H]3CC[C@H]4C[C@@H](O)CC[C@]4(C)[C@H]3CC[C@]12C,> 8 µg/mL,> 64 µg/mL,2
C[C@H]1CC[C@]2(NC1)O[C@H]1C[C@H]3[C@@H]4CC[C@H]5CC(=O)CC[C@]5(C)[C@H]4CC[C@]3(C)[C@H]1[C@@H]2C.Cl,0.25 µg/mL,> 64 µg/mL,8
CCCCNC(C)[C@H]1CC[C@H]2[C@@H]3CC[C@H]4C[C@@H](O)CC[C@]4(C)[C@H]3CC[C@]12C.Cl (some centres undefined),4 µg/mL,64 µg/mL,8
C[C@H]1CC[C@]2(NC1)O[C@H]1C[C@H]3[C@@H]4CC[C@H]5C[C@@H](O)CC[C@]5(C)[C@H]4CC[C@]3(C)[C@H]1[C@@H]2C.Cl,0.06 µg/mL,> 64 µg/mL,8
C=CCO[C@H]1CC[C@@]2(C)[C@@H](CC[C@@H]3[C@@H]2CC[C@]2(C)[C@@H]4[C@H](C[C@@H]32)O[C@@]2(CC[C@H](C)CN2)[C@H]4C)C1.Cl,0.25 µg/mL,16 µg/mL,8
C[C@H]1CC[C@]2(NC1)O[C@H]1C[C@H]3[C@@H]4CC[C@H]5C[C@H](O)CC[C@]5(C)[C@H]4CC[C@]3(C)[C@H]1[C@@H]2C.Cl,4 µg/mL,> 64 µg/mL,4
C[C@H]1CC[C@@]2(O[C@H]3C[C@H]4[C@@H]5CC[C@H]6C[C@@H](O)CC[C@]6(C)[C@H]5CC[C@]4(C)[C@H]3[C@@H]2C)N(C=O)C1,> 8 µg/mL,> 64 µg/mL,2
CC(NCCCN(C)C)[C@H]1[C@@H](O)C[C@H]2[C@@H]3CC[C@H]4C[C@@H](O)CC[C@]4(C)[C@H]3CC[C@@]21C (some centres undefined),> 8 µg/mL,> 64 µg/mL,2
GENTAMICIN,0.03 µg/mL,,
CCCCNC(C)[C@H]1[C@@H](O)C[C@H]2[C@@H]3CC[C@H]4C[C@@H](O)CC[C@]4(C)[C@H]3CC[C@@]21C.Cl (some centres undefined),> 8 µg/mL,> 64 µg/mL,2
CC(N)[C@H]1CC[C@H]2[C@@H]3CC[C@H]4C[C@@H](O)CC[C@]4(C)[C@H]3CC[C@]12C.Cl (some centres undefined),> 8 µg/mL,64 µg/mL,2
CC(=O)NC[C@@H](C)CCC1=C(C)[C@H]2[C@H](C[C@H]3[C@@H]4CC[C@H]5C[C@@H](O)CC[C@]5(C)[C@H]4CC[C@@]32C)O1,> 8 µg/mL,> 64 µg/mL,1
C[C@H]1CC[C@]2(NC1)O[C@H]1C[C@H]3[C@@H]4CC[C@H]5CC(N)CC[C@]5(C)[C@H]4CC[C@]3(C)[C@H]1[C@@H]2C.Cl.Cl (some centres undefined),1 µg/mL,32 µg/mL,8
CC(=O)NC[C@@H](C)CCC(O)[C@@H](C)[C@H]1[C@@H](O)C[C@H]2[C@@H]3CC[C@H]4C[C@@H](O)CC[C@]4(C)[C@H]3CC[C@]12C (some centres undefined),> 8 µg/mL,> 64 µg/mL,1
C[C@H]1CC[C@]2(NC1)O[C@H]1C[C@H]3[C@@H]4CC[C@H]5CC(NCCN)CC[C@]5(C)[C@H]4CC[C@]3(C)[C@H]1[C@@H]2C.Cl.Cl.Cl (some centres undefined),0.5 µg/mL,8 µg/mL,4
CC(NCCCCN)[C@H]1CC[C@H]2[C@@H]3CC[C@H]4C[C@@H](O)CC[C@]4(C)[C@H]3CC[C@]12C.Cl.Cl (some centres undefined),> 8 µg/mL,32 µg/mL,2
C[C@H]1CCC([C@@H](C)[C@H]2[C@@H](O)C[C@H]3[C@@H]4CC[C@H]5C[C@@H](O)CC[C@]5(C)[C@H]4CC[C@]23C)NC1.Cl (some centres undefined),4 µg/mL,32 µg/mL,4
CC(NCCCN)[C@H]1CC[C@H]2[C@@H]3CC[C@H]4C[C@@H](O)CC[C@]4(C)[C@H]3CC[C@]12C.Cl.Cl (some centres undefined),> 8 µg/mL,32 µg/mL,2
C[C@]12CC[C@H](O)C[C@@H]1CC[C@@H]1[C@@H]2CC[C@]2(C)[C@@H](C(=O)CN3CCCCC3)CC[C@@H]12,> 8 µg/mL,> 64 µg/mL,2
